Read-outs that look alike come from different tables or passages of the source.

As a reminder, the IC50 is the concentration that inhibits the measured activity by half.

Data set [1] in a line: Relative cell viability in HCHT screening (propidium iodide negative nuclei count). It counts as cell-based. The note with it: human; for GI50: HeLa, removal, tinc 0.5 h with 1 (10 µM), read-out: GI50, concentration causing 50% cell growth inhibition. As to the method:
(§1) With COCs 1 and 2 as cell-penetrating reporters, a fully automated, fluorescent microscopy image-based high-content high-throughput (HCHT)[19] inhibitor screening assay was developed. HeLa cells in multiwell plates are incubated with a reporter at constant and inhibitors at varying concentrations and incubation times. Hindered reporter uptake then causes decrease of fluorescence inside of cells (Fig. 3a). Automated data analysis[19] was established to extract average fluorescence intensity per cell and, at the same time, cell viability from propidium iodide negative nuclei count (Fig. 3 and S3–S6 ^†). Standard assay conditions consisted of pre-incubation of HeLa cells with inhibitors for different periods of time, followed by the removal of inhibitors and the addition of reporters, thus excluding possible interactions between the two in the extracellular environment. In alternative co-incubation conditions, inhibitors were not removed before the addition of reporters to allow for eventual interactions between the two.
To be able to extract the fluorescent integrated intensity information (sum of the intensities of all the pixels included in the mask) from the green channel for live cell only, the image analysis pipeline contains several steps of cell filtering and selection:
1) Firstly, PI is used to stain any remaining nuclei of dead cell. In the analysis pipeline, all the “dead” nuclei are detected based on their fluorescent intensity in the PI channel (Figure […]
Fig. S4 (A) PI positive nuclei mask (fluorescent intensity threshold of 1000). (B) Overlap image of dead nuclei mask and original all cell body mask. (C) Resulting cell mask after removing any cell marked by a dead nucleus, new mask is called “Live Cell”. Scale bar: 50 μm.
2) Elimination of non-full cells from the border of the image is performed, to avoid inaccurate fluorescent integrated intensity quantification (fluorescent integrated intensity = sum of intensity of all the pixel of the object) (Figure S5).
(1 picture or pasted object on this page, not shown here)
4.3. HCHT Inhibitor Screening with ETP as Reporter […]
Relative cell viability (RV) for each condition in the presence of inhibitors were calculated using the count value of living cells by dividing the count value of living cells with addition of reporter 1, Hoechst 33342 and PI, for each set of experiments. Duplicates were performed for each condition. The resulting dependence of the relative cell viability (RVrel) to the concentration of inhibitors (cinhibitor) was plotted and fitted with Equation (S2) to retrieve the concentration causing 50% cell growth inhibition (GI50) value and the Hill coefficient (n).
RVrel = 1 / (1 + (GI50 / cinhibitor)n) (S2)
Note: Reporter 1 were not toxic for 1 h at 10 μM.S2 Also in this study, the count value of living cells with addition of reporter 1, Hoechst 33342 and PI is always similar to that of living cells with only addition of Hoechst 33342 and PI.
Relative cell viability (RV) for each condition with inhibitors were calculated using the count value of living cells by dividing the count value of living cells with addition of reporter 2, Hoechst 33342 and PI, for each set of experiments. Duplicates were performed for each condition. The resulting dependence of the relative cell viability (RVrel) to the concentration of inhibitors (cinhibitor) was plotted and fitted with Equation (S2) to retrieve the concentration causing 50% cell growth inhibition (GI50) value and the Hill coefficient (n).
Note: Reporter 2 were not toxic for 24 h at 10 μM.S3 Also in this study, the count value of living cells with addition of reporter 2, Hoechst 33342 and PI is always similar to that of living cells with only addition of Hoechst 33342 and PI.
4.4.1. Screening with Disulfides as Inhibitors
4.4.1.1. Screening with ETP as Inhibitors
Fig. S35 Automatically analyzed HCHT data showing fluorescence intensity (filled symbols) and relative viability (empty symbols) of HeLa cells after pre-incubation with 3 for 1 h (blue […]

Data set [2] relates to cellular uptake of 1 in HeLa Kyoto cells. Briefly: cells. The format is cell-based. Conditions: HeLa; for IC50 / minimal effective concentration: HeLa Kyoto, removal, tinc 0.5 h with 1 (10 µM); for IC50: read-out: IC50, inhibition of cellular uptake of 1; for minimal effective concentration: read-out: MIC, inhibition of cellular uptake of 1; for MIC (concentration that causes ∼15% reduction of reporter uptake), against reporter 1: pre-incubation time not given (Fig. 2: 1 h pre-incubation, 30 min with reporter; some 15 min). As to the method: as §1
4. High-Content High-Throughput (HCHT) Inhibitor Screening
4.1. General Procedure for HCHT Inhibitor Screening
4.1.1. Pre-Incubation of Inhibitors
HeLa Kyoto cells were seeded at 1.2 ×10^4 cells/well in FluoroBrite DMEM + 10% FBS on μ-Plate 96-well Black ibiTreat sterile and kept at 37 °C with 5% CO2 overnight. Next day, serial dilutions of the inhibitors in PBS (10x final concentration), reporter 1 or 2 (100 μM in PBS) and a solution of Hoechst 33342 (100 μg/mL) and PI (10 μg/mL) in PBS were prepared freshly in a 96-well V-bottom plate. Then, cells were washed with PBS ([…]) and the media was exchanged to FluoroBrite DMEM (4 x 150 μL/well) using a plate washer (Biotek EL406®), keeping always a final volume of 135 μL/well. The inhibitor solutions from the V-bottom plate were added to the cells (15 μL/well, 10x final concentration in PBS) using an electronic multichannel pipettes to reach a final volume of 150 μL/well. Cells were incubated for the time of interest (for details of each inhibitors, see Section 4.3 and 4.4) at 37 °C with 5%
CO2. After this, cells were washed again using the plate washer and reporter solution 1 or 2 from the V-bottom plate was added (15 μL/well) using an electronic multichannel pipettes to reach a final volume of 150 μL/well and a final concentration of 10 μM, except for the control wells, where only PBS was added (15 μL/well). After 30 min of incubation at 37 °C with 5% CO2, the plate was washed again using the plate washer. Then, the solution of Hoechst 33342 and PI from V-bottom plate was added (15 μL/well) using an electronic multichannel pipettes to reach a final volume of 150 μL/well. After 15 min of incubation at 37 °C with 5% CO2, the plate was washed one last time and the cells were kept in clean FluoroBrite DMEM. During imaging, samples were kept at 37 °C with 5% CO2 in the microscope.
4.1.2. Co-Incubation of Inhibitors and Reporters […]
serial dilutions of the inhibitors in PBS (10x final concentration), reporter 1 or 2 (110 μM in […]
freshly in a 96-well V-bottom plate. Then, cells were washed with the plate washer. The inhibitor solutions from the V-bottom plate were added to the cells (15 μL/well, 10x final concentration in PBS) using an electronic multichannel pipettes to reach a final volume of 150 μL/well. Cells were incubated for the time of interest (for details of each inhibitors, see Section 4.3 and 4.4) at 37 °C with 5% CO2. Reporter solution 1 or 2 from V-bottom plate was then added (15 μL/well) using an electronic multichannel pipettes to reach a final volume of 165 μL/well and a final concentration of 10 μM 30 min before the next washing process, except for the control wells, where only PBS was added (15 μL/well). The plate was washed again using the plate washer. The solution of Hoechst 33342 and PI from V-bottom plate was added (15 μL/well) using an electronic multichannel pipettes to reach a final volume of 150 μL/well. After […]

[3] abbreviates: 0.5 h, tpre 0.5 h with inhibitor.
Where [4] appears, read: 0.25 h, tpre 0.25 h with inhibitor.
Where [5] appears, read: GI50, concentration causing 50% cell growth inhibition.

On to `O=C(O)CN1C(=O)C2SSC1C(=O)N2CCOc1ccccc1` (centres unmarked) [compound 5], for which the GI50 in data set [1] (tpre 0.5 h with inhibitor) was 10.3 ± 0.4 µM; in data set [1] (tpre 1 h with inhibitor), 7 ± 0.6 µM; in data set [1] (tpre 2 h with inhibitor) it was around 4.7 µM; in data set [1] (tpre 4 h with inhibitor), around 4.1 µM. In addition, the half-inhibitory concentration (IC50) stood at 1.1 ± 0.05 µM in data set [2] (setting [3]), 0.86 ± 0.06 µM in data set [2] (tpre 1 h with inhibitor), 0.98 ± 0.07 µM in data set [2] (tpre 2 h with inhibitor) and 1.42 ± 0.26 µM in data set [2] (tpre 4 h with inhibitor). Also, the minimal effective concentration in data set [2] (setting [3]) is 0.1 µM; in data set [2] (1 h, tpre 1 h with inhibitor) it was 0.1 µM; in data set [2] (2 h, tpre 2 h with inhibitor), 0.1 µM; in data set [2] (4 h, tpre 4 h with inhibitor) it was 0.1 µM.
Consider `O=C(CN1C(=O)C2SSC1C(=O)N2CCOc1ccccc1)NCCS(=O)(=O)O` (centres unmarked) [compound 8], for which the GI50 in data set [1] (tpre 0.5 h with inhibitor), in data set [1] (tpre 1 h with inhibitor) and in data set [1] (tpre 2 h with inhibitor) was above 100 µM in each case. The IC50 in data set [2] (setting [3]), in data set [2] (tpre 1 h with inhibitor) and in data set [2] (tpre 2 h with inhibitor) was above 100 µM each time. Also, the minimal effective concentration came out at 10 µM in data set [2] (setting [3]); 2 µM in data set [2] (1 h, tpre 1 h with inhibitor); 6 µM in data set [2] (2 h, tpre 2 h with inhibitor).
Consider `COCCOCCOCCNC(=O)c1ccc2c(c1)SSSSS2` [compound 10], for which the results for the GI50 in data set [1] (tpre 0.5 h with inhibitor), in data set [1] (tpre 1 h with inhibitor) and in data set [1] (tpre 2 h with inhibitor) were around 18 µM, around 10 µM and around 7 µM, respectively. The IC50 in data set [2] (setting [3]) is 10.4 ± 0.3 µM; in data set [2] (tpre 1 h with inhibitor), 10.1 ± 0.1 µM; in data set [2] (tpre 2 h with inhibitor), above 5 µM. The minimal effective concentration in data set [2] (setting [3]) stood at 6.5 µM; in data set [2] (1 h, tpre 1 h with inhibitor), 7 µM; in data set [2] (2 h, tpre 2 h with inhibitor) it was 3.5 µM.
Consider `CS(=O)(=O)c1nc2ccccc2o1` [compound 11], for which the GI50 in data set [1] (tpre 0.25 h with inhibitor) is above 200 µM; in data set [1] (tpre 0.5 h with inhibitor) it was 138 ± 42 µM; in data set [1] (tpre 1 h with inhibitor), 97 ± 8 µM. The minimal effective concentration in data set [2] (setting [4]) was found to be 18 µM; in data set [2] (setting [3]) it was 15 µM; in data set [2] (1 h, tpre 1 h with inhibitor), 8 µM. Also, the IC50 in data set [2] (setting [3]) was 43.3 ± 3.9 µM; in data set [2] (tpre 0.25 h with inhibitor), 84 ± 8.2 µM; in data set [2] (tpre 1 h with inhibitor), 38.9 ± 4.2 µM. Moreover, the “MIC (concentration that causes ∼15% reduction of reporter uptake), against reporter 1” value in data set [2] is “≈ 15 μM”.
For the compound `CCN1C(=O)C2SSC1C(=O)N2CC(=O)NCC[N+](C)(C)C` (centres unmarked) [compound 12], the GI50 in data set [1] (tpre 0.5 h with inhibitor), in data set [1] (tpre 1 h with inhibitor) and in data set [1] (tpre 2 h with inhibitor) was above 100 µM throughout. Moreover, the IC50 in data set [2] (setting [3]), in data set [2] (tpre 1 h with inhibitor) and in data set [2] (tpre 2 h with inhibitor) was above 100 µM each time. Moreover, the minimal effective concentration in data set [2] (setting [3]) turned out to be 30 µM; in data set [2] (1 h, tpre 1 h with inhibitor), 30 µM; in data set [2] (2 h, tpre 2 h with inhibitor), 30 µM. For the same compound, in data set [2], the “MIC (concentration that causes ∼15% reduction of reporter uptake), against reporter 1” value is “≈ 30 μM”.
On to `CS(=O)(=O)c1nnc(-c2ccccc2)o1` [compound 14], for which the GI50 in data set [1] (tpre 0.25 h with inhibitor) was above 500 µM; in data set [1] (tpre 0.5 h with inhibitor) it was 410 ± 99 µM. Moreover, the results for the minimal effective concentration in data set [2] (setting [4]) and in data set [2] (setting [3]) were 40 µM and 20 µM, respectively. Besides, the IC50 in data set [2] (setting [3]) was determined as 204 ± 63 µM; in data set [2] (tpre 0.25 h with inhibitor), 137 ± 28 µM.
In data set [1] (setting [5]), `O=C(O)c1cc(SSc2ccc([N+](=O)[O-])c(C(=O)O)c2)ccc1[N+](=O)[O-]` [compound 20, 5,5’-Dithiobis(2-nitrobenzoic acid), reference compound] had a GI50 at 0.5 h above 10000 µM. Moreover, the GI50 at 1 h in data set [1] (setting [5]) was above 10000 µM. In addition, in data set [2], the “Inhibition of uptake of reporter 1, in words” value is on record as “minor inhibition up to around 2 mM, which disappeared again at higher concentrations”. Besides, the minimal effective concentration in data set [2] (setting [3]) is 200 µM; in data set [2] (1 h, tpre 1 h with inhibitor) it was 500 µM.
With `CS(=O)(=O)c1nc2ccccc2s1` [compound 21], the GI50 in data set [1] (tpre 0.25 h with inhibitor), in data set [1] (tpre 0.5 h with inhibitor) and in data set [1] (tpre 1 h with inhibitor) was above 500 µM each time. The minimal effective concentration worked out at 300 µM in data set [2] (setting [4]); 100 µM in data set [2] (setting [3]); 300 µM in data set [2] (1 h, tpre 1 h with inhibitor). For the same compound, the half-maximal inhibitory concentration (IC50) in data set [2] (setting [3]), in data set [2] (tpre 0.25 h with inhibitor) and in data set [2] (tpre 1 h with inhibitor) was above 500 µM in each case. For the same compound, in data set [2], the “MIC (concentration that causes ∼15% reduction of reporter uptake), against reporter 1” value is given as “≈ 300 μM”.
